Measured values: patent US7129266B2, “Antibiotic Cyan426-A” (Wyeth Holdings Corporation, priority 2002, dated 2006)
≈ marks a conversion by molar mass, not a printed value. Read-outs that look alike come from different tables or passages of the source.

Legend:
Test in all cases: In vitro antibacterial test, MIC by broth dilution
Type in all cases: cell-based
[1] = tested on: Staphylococcus haemolyticus; conditions: Staphylococcus haemolyticus GC 4547, resistant to methicillin; 18 hours at 35° C.
Method: (§1) The minimum inhibitory concentration (MIC), the lowest concentration of the antibiotic which inhibits growth of the test organism, is determined by the broth dilution method using Muller-Hinton II […] (Baltimore Biological Laboratories) following the recommendations of the National Committee for Clinical Laboratory Standards [Methods for dilution antimicrobial susceptibility tests for bacteria that grow aerobically. Approved standard M7-A2. National Committee for Clinical Laboratory Standards, Villanova, Pa.].
(§2) An inoculum level of 5×10^5 CFU/ml, and a range of antibiotic concentrations (64–0.06 μg/ml) is used. The MIC is determined after the microtiter plates are incubated for 18 hours at 35° C. in an ambient air incubator. The test organisms comprise a spectrum of Gram-positive bacteria Staphylococcus sp., Streptococcus pneumoniae, Enterococcus sp., Gram-negative bacteria Escherichia coli, and the yeast Candida albicans. These organisms include recent clinical isolates that are resistant to piperacillin or vancomycin.

Enterococcus faecalis = conditions: 18 hours at 35° C.
Method: as §1, §2

Escherichia coli = conditions: 18 hours at 35° C.
Method: as §1, §2

Staphylococcus aureus = conditions: 18 h
Method: as §1, §2

Enterococcus faecium = conditions: 18 h
Method: as §1, §2

Streptococcus pneumoniae = conditions: 18 h
Method: as §1, §2

Candida albicans = Candida albicans GC 3066; 18 hours at 35° C.
Method: as §1, §2

Compound: C=CC1C=C(C)C2C3C(Oc4ccc(cc4)CC4(O)C=C(C(=O)N4)C(=O)C13)C1C(C)CC(C)CC21C (stereo not shown) [Cyan426-A]
- MIC [1]: 0.25 µg/mL (≈ 0.513 µM)
- MIC (Enterococcus faecalis; Enterococcus faecalis GC 2242, resistant to vancomycin): 0.50 µg/mL (≈ 1.03 µM)
- MIC (Enterococcus faecalis; Enterococcus faecalis GC 4555): 0.50 µg/mL (≈ 1.03 µM)
- MIC (Enterococcus faecalis; Enterococcus faecalis GC 6189, read-out: MIC): 0.5 µg/mL (≈ 1.03 µM)
- MIC (Escherichia coli; Escherichia coli GC 4559, read-out: MIC): 128 µg/mL (≈ 262 µM)
- MIC (Escherichia coli; Escherichia coli, 18 h, Escherichia coli GC 4560 (imp)): 2 µg/mL (≈ 4.1 µM)
- MIC (Staphylococcus aureus; Staphylococcus aureus GC 1131, resistant to methicillin, 18 hours at 35° C.): 2 µg/mL (≈ 4.1 µM)
- MIC (Staphylococcus aureus; Staphylococcus aureus GC 2216, 18 hours at 35° C.): 1 µg/mL (≈ 2.05 µM)
- MIC (Staphylococcus aureus; Staphylococcus aureus GC 4541, resistant to methicillin, 18 hours at 35° C.): 0.25 µg/mL (≈ 0.513 µM)
- MIC (Staphylococcus aureus; Staphylococcus aureus GC 4543, 18 hours at 35° C.): 1 µg/mL (≈ 2.05 µM)
- MIC (Enterococcus faecium; Enterococcus faecium GC 2243, marked * (resistant to methicillin), 18 hours at 35° C.): 1 µg/mL (≈ 2.05 µM)
- MIC (Enterococcus faecium; Enterococcus faecium GC 4556, 18 hours at 35° C.): 1 µg/mL (≈ 2.05 µM)
- MIC (Enterococcus faecium; Enterococcus faecium GC 4558, marked * (resistant to methicillin), 18 hours at 35° C.): 0.5 µg/mL (≈ 1.03 µM)
- MIC (Streptococcus pneumoniae; Streptococcus pneumoniae GC 1894, 18 hours at 35° C.): 64 µg/mL (≈ 131 µM)
- MIC (Streptococcus pneumoniae; Streptococcus pneumoniae GC 6242, 18 hours at 35° C.): 16 µg/mL (≈ 32.8 µM)
- MIC (Candida albicans): 8 µg/mL (≈ 16.4 µM)
